In US11633370B2, “Use of scavengers of reactive gamma-ketoaldehydes to extend cell lifespan and healthspan” (Vanderbilt University, priority 2016, dated 2023):

Target: T1, recombinant human SIRT1 (Homo sapiens, UniProt Q96EB6)
T1 construct: purchased R&D Systems, Biotechne
T1 sequence (Q96EB6 1-747): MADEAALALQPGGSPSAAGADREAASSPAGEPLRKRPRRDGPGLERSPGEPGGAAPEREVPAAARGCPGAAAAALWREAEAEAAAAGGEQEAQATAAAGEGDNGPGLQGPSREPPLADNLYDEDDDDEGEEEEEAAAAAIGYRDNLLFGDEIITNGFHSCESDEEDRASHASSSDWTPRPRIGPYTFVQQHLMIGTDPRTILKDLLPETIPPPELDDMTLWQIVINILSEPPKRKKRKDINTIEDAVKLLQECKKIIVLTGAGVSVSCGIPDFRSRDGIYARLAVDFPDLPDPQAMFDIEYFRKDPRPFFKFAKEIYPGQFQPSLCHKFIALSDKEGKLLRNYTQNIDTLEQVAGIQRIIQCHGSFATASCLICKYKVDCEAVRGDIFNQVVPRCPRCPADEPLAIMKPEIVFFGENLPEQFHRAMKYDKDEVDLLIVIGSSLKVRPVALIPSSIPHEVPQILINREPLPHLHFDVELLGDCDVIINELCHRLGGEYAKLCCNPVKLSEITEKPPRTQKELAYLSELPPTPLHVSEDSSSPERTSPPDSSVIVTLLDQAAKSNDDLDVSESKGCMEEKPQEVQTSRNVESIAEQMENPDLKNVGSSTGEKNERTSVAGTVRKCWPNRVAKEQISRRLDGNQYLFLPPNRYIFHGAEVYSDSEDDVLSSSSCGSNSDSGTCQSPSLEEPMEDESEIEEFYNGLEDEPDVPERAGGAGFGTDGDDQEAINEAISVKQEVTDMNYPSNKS
Experiment: NAD+-dependent deacetylation bioluminescence assay (SIRT-Glo)
Assay type: biochemical
Conditions: Sirt-Glo luminescence assay, three independent experiments; read-out: IC50, inhibition of deacetylase activity
Method: Though SA treatment should prevent IsoK adduct formation on many different protein targets, and many of these proteins could have some impact on lifespan and healthspan, the present inventors determined that there would be specific proteins of particular importance in mediating SA's beneficial effects. Specifically, the present inventors recognized that SIR-2.1 would be one of these “high value targets” for several reasons. […] Recombinant human SIRT1 was incubated with increasing concentrations of synthetically pure IsoK, and enzymatic deacetylase activity was assessed using the luminescence based Sirt-Glo assay (Promega).
Relative activity of the NAD+-dependent histone deacetylase (HDAC) class III enzymes (sirtuins) was measured using the SIRT-Glo™ Assay and Screening System (Promega Corporation, Madison, Wis.) according to the manufacturer's instructions with minor modifications. […] Deacetylation of the peptide substrate is measured using a coupled enzymatic system with a protease in the reagent provided and then cleaves the luminogenic peptide to liberate aminoluciferin. Free aminoluciferin can be quantified using the Ultra-Glo™ firefly luciferase reaction to produce a stable, persistent emission of light. […] 15-E2-IsoK was synthesized by the method of Armanath et al. Luminescence was detected by a microplate reader (FLUOstar Optima microplate reader, BMG Labtechnologies).

- IC50: 97.8 µM
Substance: 15-E2-IsoK
